Experimental data taken from article PMC12006963, “Application of Deuterium in an M1 Positive Allosteric Modulator Back-Up Program: The Discovery of VU6045422” (ACS Chemical Neuroscience, 2025).

Columns and labels:
Serotonin (5-HT2B) = Serotonin (5-HT2B) (Homo sapiens, UniProt P41595); experiment: Eurofins radioligand binding
Adrenergic α1B = Adrenergic α1B (Homo sapiens, UniProt P35368); experiment: Eurofins radioligand binding
Imidazoline I2, Central = experiment: Eurofins radioligand binding; parameters: species or system Rat
Sodium Channel, Site 2 = experiment: Eurofins radioligand binding; parameters: species or system Rat
[1] = tested on: Calcium Channel L-Type, Dihydropyridine; experiment: Eurofins radioligand binding; parameters: species or system Rat
Melatonin MT1 = Melatonin MT1 (Homo sapiens, UniProt P48039); experiment: Eurofins radioligand binding
[2] = tested on: GABAA, Flunitrazepam, Central; experiment: Eurofins radioligand binding; parameters: species or system Rat
Adenosine A3 = Adenosine A3 (Homo sapiens, UniProt P0DMS8); experiment: Eurofins radioligand binding
[3] = Rat oral dose escalation PK study; format: in vivo; settings: for AUC(0-t) / Cmax: Sprague-Dawley, plasma, rat, oral
Method: page 9: Brain plasma concentration ratio (Kp) was calculated by dividing brain concentration by plasma concentration for each animal. Unbound brain to unbound plasma concentration ratio (Kp,uu) is calculated using the following formula: Kp,uu = (Brain ng/g x brain fu)/(plasma ng/ml x plasma fu). Pharmacokinetic profiles in rats following oral single escalating doses Single escalating oral dosing in Sprague-Dawley rats was performed at Frontage Laboratories according to their non-GLP Standard Operating Procedure and IACUC protocols. […] At different times, arterial blood was collected from a femoral artery catheter, and compound concentration was determined in plasma by LC-MS/MS following their non-GLP protocol. PK parameters were determined using Phoenix WinNonlin software (version 6.3). In-vitro determination of blood-brain barrier penetration potential Blood-brain barrier penetration was determined using MDR1-MDCK cell monolayers by Absorption Systems, following their protocol. In short, compounds were incubated at […] final concentration on one side of the cell monolayer for 2 hours. Compounds concentration on either side of the monolayer was determined by LC-MS/MS and apparent permeability and efflux ratio were determined as described in Wang, Q. et al.1 Behavioral Manifestations of Seizure Activity To evaluate induction of behavioral manifestation of seizure activity, C57Bl/6 mice received administration of vehicle or 100 mg/kg M1 PAM 5. Compound was formulated in 30% Captisol (pH 7.0) at a concentration of 10 mg/mL and injected i.p. at 10 ml/kg (n = 4). Animals were monitored continuously and scored for behavioral manifestations of seizure activity at 5, 15, 30 min, and 1 h. Behavioral manifestations of seizures were scored using a modified Racine scoring system. Briefly, a score of 0 represents no behavior alterations; score 1, immobility, mouth and facial movements, or facial clonus; score 2, head nodding, tail extension; score 3, forelimb clonus, repetitive movements; score 4, rearing and tonic clonic seizure; and score 5, continuous rearing and falling, severe generalized tonic clonic seizure. Novel Object Recognition Task S9

Muscarinic M3 = Muscarinic M3 (Homo sapiens, UniProt P20309); experiment: Eurofins radioligand binding
Adenosine A2A = Adenosine A2A (Homo sapiens, UniProt P29274); experiment: Eurofins radioligand binding
Adrenergic β1 = Adrenergic β1 (Homo sapiens, UniProt P08588); experiment: Eurofins radioligand binding
Serotonin (5-HT3) = Serotonin (5-HT3) (Homo sapiens, UniProt P46098); experiment: Eurofins radioligand binding
Dopamine D4.2 = experiment: Eurofins radioligand binding; parameters: species or system Human
[4] = tested on: bacterial mutagenicity (4-strain with and without S9); experiment: Bacterial mutagenicity mini-AMES assay; format: cell-based
Endothelin ETA = Endothelin ETA (Homo sapiens, UniProt P25101); experiment: Eurofins radioligand binding
Rolipram = experiment: Eurofins radioligand binding; parameters: species or system Rat
Endothelin ETB = Endothelin ETB (Homo sapiens, UniProt P24530); experiment: Eurofins radioligand binding
CYP 3A4 = CYP 3A4 (Homo sapiens, UniProt P08684); experiment: CYP isoform contribution to metabolism: 3A4; format: in vitro ADME
Transporter, GABA = Transporter, GABA (Rattus norvegicus, UniProt P23978); experiment: Eurofins radioligand binding
Glutamate, NMDA, Glycine = experiment: Eurofins radioligand binding; parameters: species or system Rat
[5] = target: Nicotinic Acetylcholine α3β4 (Homo sapiens, UniProt P30926+P32297); experiment: Eurofins radioligand binding
Opiate μ (OP3, MOP) = Opiate μ (OP3, MOP) (Homo sapiens, UniProt P35372); experiment: Eurofins radioligand binding
Cannabinoid CB1 = Cannabinoid CB1 (Homo sapiens, UniProt P21554); experiment: Eurofins radioligand binding
hERG potassium channel = hERG potassium channel (Homo sapiens, UniProt Q12809); experiment: Eurofins radioligand binding
[6] = target: Platelet Activating Factor (PAF) (Homo sapiens, UniProt P25105); experiment: Eurofins radioligand binding
[7] = GSH trapping in microsomes; format: in vitro ADME; settings: rat, dog, cyno, and human microsomes
[8] = target: Epidermal Growth Factor (EGF) (Homo sapiens, UniProt P00533); experiment: Eurofins radioligand binding
Glutamate, NMDA, Agonism = experiment: Eurofins radioligand binding; parameters: species or system Rat
[9] = parameters: method as in PMID 39660766; settings: rat hepatic microsomes; cited from earlier work
hERG = hERG (Homo sapiens, UniProt Q12809); parameters: method as in PMID 39660766; settings: read-out: hERG manual patch clamp IC50; cited from earlier work

Chain of Nicotinic Acetylcholine α3β4 (P32297 32-505): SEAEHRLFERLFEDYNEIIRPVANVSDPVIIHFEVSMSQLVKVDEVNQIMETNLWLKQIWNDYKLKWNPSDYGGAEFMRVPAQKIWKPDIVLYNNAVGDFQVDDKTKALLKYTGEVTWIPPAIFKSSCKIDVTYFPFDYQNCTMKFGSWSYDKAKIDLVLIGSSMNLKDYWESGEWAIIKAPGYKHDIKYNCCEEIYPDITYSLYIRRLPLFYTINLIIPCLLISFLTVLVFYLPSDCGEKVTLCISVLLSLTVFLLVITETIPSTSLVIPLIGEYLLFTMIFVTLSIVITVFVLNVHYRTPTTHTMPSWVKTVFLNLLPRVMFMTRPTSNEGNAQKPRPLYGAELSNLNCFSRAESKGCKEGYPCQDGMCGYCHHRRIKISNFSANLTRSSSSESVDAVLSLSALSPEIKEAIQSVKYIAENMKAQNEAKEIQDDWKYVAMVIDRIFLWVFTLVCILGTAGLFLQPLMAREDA
Chain of Nicotinic Acetylcholine α3β4 (P30926 22-498): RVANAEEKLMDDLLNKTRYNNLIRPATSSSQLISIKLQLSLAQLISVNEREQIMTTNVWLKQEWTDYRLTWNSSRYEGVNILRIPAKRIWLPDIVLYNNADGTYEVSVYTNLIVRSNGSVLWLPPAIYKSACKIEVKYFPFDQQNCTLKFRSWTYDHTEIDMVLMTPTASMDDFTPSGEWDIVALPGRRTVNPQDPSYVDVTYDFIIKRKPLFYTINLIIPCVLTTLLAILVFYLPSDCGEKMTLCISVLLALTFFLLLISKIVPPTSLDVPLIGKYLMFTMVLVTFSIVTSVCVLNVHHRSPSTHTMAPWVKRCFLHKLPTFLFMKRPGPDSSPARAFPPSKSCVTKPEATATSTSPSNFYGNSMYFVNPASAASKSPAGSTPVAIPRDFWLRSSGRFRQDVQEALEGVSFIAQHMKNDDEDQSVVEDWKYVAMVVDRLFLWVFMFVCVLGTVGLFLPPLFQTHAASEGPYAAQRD
Chain of Adenosine A2A (P29274 whole entry): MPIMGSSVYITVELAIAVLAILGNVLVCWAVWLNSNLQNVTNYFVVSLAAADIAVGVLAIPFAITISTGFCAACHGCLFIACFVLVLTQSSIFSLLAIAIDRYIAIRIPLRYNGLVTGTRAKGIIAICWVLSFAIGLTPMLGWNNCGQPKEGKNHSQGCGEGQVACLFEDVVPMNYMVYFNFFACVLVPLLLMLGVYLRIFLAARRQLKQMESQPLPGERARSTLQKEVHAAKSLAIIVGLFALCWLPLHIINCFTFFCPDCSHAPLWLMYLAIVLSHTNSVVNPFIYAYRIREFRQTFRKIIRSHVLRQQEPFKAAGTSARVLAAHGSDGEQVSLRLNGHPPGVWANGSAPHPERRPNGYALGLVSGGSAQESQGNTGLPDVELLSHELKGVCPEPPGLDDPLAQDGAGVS
Chain of Adrenergic β1 (P08588 whole entry): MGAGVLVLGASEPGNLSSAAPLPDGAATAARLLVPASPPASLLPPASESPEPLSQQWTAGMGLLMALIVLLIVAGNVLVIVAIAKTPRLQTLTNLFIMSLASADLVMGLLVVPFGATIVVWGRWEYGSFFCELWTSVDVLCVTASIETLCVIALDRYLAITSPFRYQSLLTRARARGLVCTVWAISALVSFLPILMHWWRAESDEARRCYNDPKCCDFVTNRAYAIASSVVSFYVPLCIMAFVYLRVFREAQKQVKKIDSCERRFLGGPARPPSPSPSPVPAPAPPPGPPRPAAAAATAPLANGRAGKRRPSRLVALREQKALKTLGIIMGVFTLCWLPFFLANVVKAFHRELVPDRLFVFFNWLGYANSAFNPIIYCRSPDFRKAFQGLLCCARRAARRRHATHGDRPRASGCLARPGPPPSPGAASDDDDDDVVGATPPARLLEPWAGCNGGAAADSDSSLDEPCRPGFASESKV
Chain of Serotonin (5-HT2B) (P41595 whole entry): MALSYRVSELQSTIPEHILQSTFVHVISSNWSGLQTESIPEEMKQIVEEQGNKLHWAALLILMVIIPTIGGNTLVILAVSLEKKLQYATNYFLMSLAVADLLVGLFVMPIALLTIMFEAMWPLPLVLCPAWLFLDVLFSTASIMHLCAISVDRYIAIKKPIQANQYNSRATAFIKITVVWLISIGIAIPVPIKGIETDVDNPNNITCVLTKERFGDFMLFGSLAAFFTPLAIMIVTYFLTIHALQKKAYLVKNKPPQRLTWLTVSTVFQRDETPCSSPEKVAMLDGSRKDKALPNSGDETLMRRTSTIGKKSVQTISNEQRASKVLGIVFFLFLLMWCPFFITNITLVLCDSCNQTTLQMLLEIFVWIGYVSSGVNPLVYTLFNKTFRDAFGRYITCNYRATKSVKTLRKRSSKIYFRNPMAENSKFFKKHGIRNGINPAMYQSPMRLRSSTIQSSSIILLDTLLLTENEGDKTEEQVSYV
Chain of Adrenergic α1B (P35368 whole entry): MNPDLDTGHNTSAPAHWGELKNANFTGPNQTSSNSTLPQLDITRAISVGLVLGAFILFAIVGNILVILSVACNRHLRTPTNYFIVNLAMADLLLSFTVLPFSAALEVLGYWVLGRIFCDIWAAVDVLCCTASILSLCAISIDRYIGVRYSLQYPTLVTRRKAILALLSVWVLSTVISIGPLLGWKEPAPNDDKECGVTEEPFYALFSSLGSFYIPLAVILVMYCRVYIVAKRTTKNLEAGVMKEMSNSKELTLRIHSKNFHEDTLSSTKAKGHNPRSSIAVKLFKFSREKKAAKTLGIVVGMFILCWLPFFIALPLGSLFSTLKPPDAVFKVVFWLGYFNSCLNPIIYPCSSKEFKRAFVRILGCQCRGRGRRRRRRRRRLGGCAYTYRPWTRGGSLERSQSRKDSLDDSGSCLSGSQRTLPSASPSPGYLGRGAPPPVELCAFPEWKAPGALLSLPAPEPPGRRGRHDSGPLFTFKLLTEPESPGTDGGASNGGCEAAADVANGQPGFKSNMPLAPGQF
Chain of Cannabinoid CB1 (P21554 whole entry): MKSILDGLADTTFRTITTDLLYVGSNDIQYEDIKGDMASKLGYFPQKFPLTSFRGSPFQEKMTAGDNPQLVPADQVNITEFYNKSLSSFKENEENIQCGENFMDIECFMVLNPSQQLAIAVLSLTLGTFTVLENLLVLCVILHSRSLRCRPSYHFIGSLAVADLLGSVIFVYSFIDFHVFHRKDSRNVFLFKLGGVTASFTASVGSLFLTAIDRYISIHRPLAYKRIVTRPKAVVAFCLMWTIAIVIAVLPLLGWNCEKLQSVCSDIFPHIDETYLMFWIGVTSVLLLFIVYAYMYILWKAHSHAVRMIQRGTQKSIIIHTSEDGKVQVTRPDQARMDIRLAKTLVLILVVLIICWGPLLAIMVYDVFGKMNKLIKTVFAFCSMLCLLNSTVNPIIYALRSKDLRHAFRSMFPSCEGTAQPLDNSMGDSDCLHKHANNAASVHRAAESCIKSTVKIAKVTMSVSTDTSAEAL
Chain of Serotonin (5-HT3) (P46098 24-478): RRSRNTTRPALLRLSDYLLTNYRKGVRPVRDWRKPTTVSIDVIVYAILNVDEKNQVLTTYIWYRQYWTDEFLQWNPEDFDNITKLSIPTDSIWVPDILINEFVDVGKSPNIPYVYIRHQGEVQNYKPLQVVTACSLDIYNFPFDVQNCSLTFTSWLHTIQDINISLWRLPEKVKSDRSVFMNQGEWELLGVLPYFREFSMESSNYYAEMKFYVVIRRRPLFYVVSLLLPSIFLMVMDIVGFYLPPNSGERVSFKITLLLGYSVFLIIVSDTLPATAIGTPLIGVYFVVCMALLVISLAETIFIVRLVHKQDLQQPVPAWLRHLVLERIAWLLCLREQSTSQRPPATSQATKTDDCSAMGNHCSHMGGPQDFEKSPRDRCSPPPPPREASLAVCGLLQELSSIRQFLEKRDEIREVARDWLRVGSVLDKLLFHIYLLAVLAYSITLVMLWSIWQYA
Chain of Endothelin ETA (P25101 21-427): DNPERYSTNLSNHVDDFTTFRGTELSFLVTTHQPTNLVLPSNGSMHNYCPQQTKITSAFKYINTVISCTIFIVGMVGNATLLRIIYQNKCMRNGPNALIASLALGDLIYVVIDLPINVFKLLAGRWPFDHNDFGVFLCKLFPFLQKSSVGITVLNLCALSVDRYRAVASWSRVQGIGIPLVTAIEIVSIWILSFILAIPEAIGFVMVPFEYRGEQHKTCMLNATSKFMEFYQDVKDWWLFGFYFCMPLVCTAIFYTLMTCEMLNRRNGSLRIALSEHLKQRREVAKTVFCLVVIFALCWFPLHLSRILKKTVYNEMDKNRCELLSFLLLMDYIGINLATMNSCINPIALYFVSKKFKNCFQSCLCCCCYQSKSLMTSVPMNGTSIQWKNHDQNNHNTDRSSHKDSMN
Chain of Melatonin MT1 (P48039 whole entry): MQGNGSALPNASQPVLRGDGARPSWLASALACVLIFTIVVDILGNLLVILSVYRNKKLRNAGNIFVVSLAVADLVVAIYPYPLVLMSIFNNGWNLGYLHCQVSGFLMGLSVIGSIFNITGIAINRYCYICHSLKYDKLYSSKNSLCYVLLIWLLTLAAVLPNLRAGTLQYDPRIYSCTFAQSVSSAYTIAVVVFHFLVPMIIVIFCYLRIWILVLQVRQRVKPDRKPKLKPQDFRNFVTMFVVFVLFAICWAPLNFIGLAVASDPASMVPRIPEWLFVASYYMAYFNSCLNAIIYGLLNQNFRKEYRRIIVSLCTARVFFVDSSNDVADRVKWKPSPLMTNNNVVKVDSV
Chain of Opiate μ (OP3, MOP) (P35372 whole entry): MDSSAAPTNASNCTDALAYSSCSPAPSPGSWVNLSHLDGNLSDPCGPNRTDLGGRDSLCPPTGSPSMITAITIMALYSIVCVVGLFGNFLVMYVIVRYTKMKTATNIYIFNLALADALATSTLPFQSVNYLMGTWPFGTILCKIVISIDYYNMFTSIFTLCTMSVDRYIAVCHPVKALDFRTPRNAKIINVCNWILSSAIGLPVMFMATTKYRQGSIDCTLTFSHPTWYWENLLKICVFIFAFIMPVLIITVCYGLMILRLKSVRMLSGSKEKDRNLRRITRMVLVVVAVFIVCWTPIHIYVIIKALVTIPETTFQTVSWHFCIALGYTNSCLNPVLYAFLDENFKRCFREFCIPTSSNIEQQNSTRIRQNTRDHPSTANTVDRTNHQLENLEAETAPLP

In the case of `[2H]C1([2H])c2ncccc2C(=O)N1Cc1c(F)cc(-c2cccc3nn(C([2H])([2H])[2H])cc23)cc1F` [compound 5], the inhibition at 10 µM (Serotonin (5-HT2B)) is reported as 10%, the inhibition at 10 µM (Adrenergic α1B) is reported as 10% and the “% Inhibition at 10 µM” value (Imidazoline I2, Central) is reported as 59%. The “% Inhibition at 10 µM” value (Sodium Channel, Site 2) was 14%, the “% Inhibition at 10 µM” value [1] was 6% and the inhibition at 10 µM (Melatonin MT1) was 5%. The “% Inhibition at 10 µM” value [2] was 0%, the inhibition at 10 µM (Adenosine A3) was 12% and the AUC(0-t) ([3]; 3 mg/kg) was 8390 ng·h/mL. The Cmax ([3]; 3 mg/kg) was 1250 ng/mL, the AUC(0-t) ([3]; 10 mg/kg) was 23900 ng·h/mL and the Cmax ([3]; 10 mg/kg) was 3380 ng/mL. The AUC(0-t) ([3]; 30 mg/kg) was 55600 ng·h/mL, the Cmax ([3]; 30 mg/kg) was 6020 ng/mL and the AUC(0-t) ([3]; 100 mg/kg) was 87800 ng·h/mL. The Cmax ([3]; 100 mg/kg) was 7850 ng/mL, the “cholinergic signs or adverse events” value ([3]; rat oral dose escalation 3-100 mg/kg) was “no cholinergic signs or adverse events were noted” and the inhibition at 10 µM (Muscarinic M3) was -10%. For the same molecule, the inhibition at 10 µM (Adenosine A2A) was 7%, the inhibition at 10 µM (Adrenergic β1) was 2% and the inhibition at 10 µM (Serotonin (5-HT3)) was -9%. For the same molecule, the “% Inhibition at 10 µM” value (Dopamine D4.2) was 13%, the “bacterial mutagenicity mini-AMES result” value [4] was “negative” and the inhibition at 10 µM (Endothelin ETA) was -4%. For the same molecule, the “% Inhibition at 10 µM” value (Rolipram) was 10%, the inhibition at 10 µM (Endothelin ETB) was 1% and the “contribution of CYP 3A4 to metabolism” value (CYP 3A4) was 92.6%. The inhibition at 10 µM (Transporter, GABA) was 31%, the “% Inhibition at 10 µM” value (Glutamate, NMDA, Glycine) was -8% and the inhibition at 10 µM [5] was -7%. It also gave an inhibition at 10 µM (Opiate μ (OP3, MOP)) of 5%, an inhibition at 10 µM (Cannabinoid CB1) of -3% and an inhibition at 10 µM (hERG potassium channel) of 9%. For the same molecule, the inhibition at 10 µM [6] was 22%, the “conjugation in GSH trapping studies” value [7] was under 0.1% and the inhibition at 10 µM [8] was 3%. The “% Inhibition at 10 µM” value (Glutamate, NMDA, Agonism) was 3%.

For `Cn1cc2c(-c3cc(F)c(CN4Cc5ncccc5C4=O)c(F)c3)cccc2n1` [compound 1], the “rat CLhep” value [9] is given as 5.7 mL/min/kg and the IC50 (hERG) is given as 12 µM.
